Test results from publication PMC4014698 (Pharmaceuticals, 2014).
In brackets after ≈: the same amount, converted by molar mass. Non-standard residues stand in square brackets, D forms with d. Residues, ends and D or L forms follow the SMILES beside them.

Assays:
[1] = test system: Pseudomonas aeruginosa (6 different isolates); conditions: geometric mean of the MIC values from 6 different isolates of P. aeruginosa; Table 3B
From the text: (§1) P. aeruginosa strains used are as follows: strain PAO1 was isolated from a human wound in 1955 in Australia; strain WR5 was isolated from a burn patient at Walter Reed Army Hospital, Washington, DC, USA, in 1976 and is a natural toxA^− mutant, but is virulent in experimental mouse models; strain PAK was originally isolated at Memorial University, St. John’s, Newfoundland, Canada, and is widely used in the analysis of pili; strain PA14 was originally isolated as a clinical isolate in 1995 at the Massachusetts General Hospital, Boston, MA, USA and is virulent in a variety of plant and animal models of infection; strain M2 was originally isolated in 1975 from the gastrointestinal tract of a healthy CF1 mouse, University of Cincinnati College of Medicine, and Shriners Burns Institute, Cincinnati, OH, USA and is virulent in a burn mouse model of P. aeruginosa infection; and strain CP204 was isolated from a cystic fibrosis patient in 1989 at the National Jewish Medical and Research Center, Denver, CO, USA. All strains have been maintained at −80 °C in the laboratory of Michael Vasil, University of Colorado, School of Medicine.
(§2) The minimal inhibitory concentration (MIC) is defined as the lowest peptide concentration that inhibited bacterial growth. MICs were measured by a standard microtiter dilution method in Mueller Hinton (MH) medium. Briefly, cells were grown overnight at 37 °C in MH broth and were diluted in the same medium. […] The plates were incubated at 37 °C for 24 h, and the MICs were determined.
Geometric mean of MIC values was calculated to provide an overall view of antimicrobial activity of different analogs.

[2] = test system: A. baumannii strain 759; assay: MIC, microtiter dilution; format: cell-based, Acinetobacter baumannii; conditions: source gluteus; Mueller-Hinton medium, 37 °C, 24 h, 5 × 10^5 CFU/mL; three sets of determinations
From the text: (§3) All the A. baumannii strains used in this study were (1) obtained from the collection of Dr. Anthony A. Campagnari at the University of Buffalo and originally isolated from different patients and organs/tissues (strain 649, blood; strain 689, groin; strain 759, gluteus; strain 821, urine; strain 884, axilla; strain 899, perineum; strain 964, throat; strain 985, pleural fluid and strain 1012, sputum); (2) were purchased from the American Type Culture Collection (ATCC, Manassas, VA, USA) (strain ATCC 17978, fatal meningitis; and strain ATCC 19606, urine).
(§4) The minimal inhibitory concentration (MIC) is defined as the lowest peptide concentration that inhibited bacterial growth. MICs were measured by a standard microtiter dilution method in Mueller Hinton (MH) medium. Briefly, cells were grown overnight at 37 °C in MH broth and were diluted in the same medium. Serial dilutions of the peptides were added to the microtiter plates in a volume of 50 µL, followed by the addition of 50 µL of bacteria to give a final inoculum of 5 × 10^5 colony-forming units (CFU)/mL. The plates were incubated at 37 °C for 24 h, and the MICs were determined.

[3] = test system: A. baumannii strain 884; assay: MIC, microtiter dilution; format: cell-based, Acinetobacter baumannii; conditions: source axilla; Mueller-Hinton medium, 37 °C, 24 h, 5 × 10^5 CFU/mL; three sets of determinations
From the text: as §3, §4

[4] = test system: A. baumannii strain 649; assay: MIC, microtiter dilution; format: cell-based, Acinetobacter baumannii; conditions: source blood; Mueller-Hinton medium, 37 °C, 24 h, 5 × 10^5 CFU/mL; three sets of determinations
From the text: as §3, §4

[5] = test system: A. baumannii strain ATCC 19606; assay: MIC, microtiter dilution; format: cell-based, Acinetobacter baumannii; conditions: source urine; Mueller-Hinton medium, 37 °C, 24 h, 5 × 10^5 CFU/mL; three sets of determinations
From the text: as §3, §4

[6] = test system: A. baumannii strain 821; assay: MIC, microtiter dilution; format: cell-based, Acinetobacter baumannii; conditions: source urine; Mueller-Hinton medium, 37 °C, 24 h, 5 × 10^5 CFU/mL; three sets of determinations
From the text: as §3, §4

[7] = test system: A. baumannii strain 1012; format: cell-based, Acinetobacter baumannii; conditions: source sputum; Mueller-Hinton medium, 37 °C, 24 h, 5 × 10^5 CFU/mL; three sets of determinations
From the text: as §3, §4

[8] = test system: A. baumannii strain 985; format: cell-based, Acinetobacter baumannii; conditions: source pleural fluid; Mueller-Hinton medium, 37 °C, 24 h, 5 × 10^5 CFU/mL; three sets of determinations
From the text: as §3, §4

[9] = test system: A. baumannii strain 964; format: cell-based, Acinetobacter baumannii; conditions: source throat; Mueller-Hinton medium, 37 °C, 24 h, 5 × 10^5 CFU/mL; three sets of determinations
From the text: as §3, §4

[10] = test system: A. baumannii strain 689; format: cell-based, Acinetobacter baumannii; conditions: source groin; Mueller-Hinton medium, 37 °C, 24 h, 5 × 10^5 CFU/mL; three sets of determinations
From the text: as §3, §4

[11] = test system: A. baumannii strain ATCC 17978; format: cell-based, Acinetobacter baumannii; conditions: ATCC 17978, 24 h
From the text: as §3, §4

[12] = test system: A. baumannii strain 899; format: cell-based, Acinetobacter baumannii; conditions: source perineum; Mueller-Hinton medium, 37 °C, 24 h, 5 × 10^5 CFU/mL; three sets of determinations
From the text: as §3, §4

[13] = test system: P. aeruginosa strain PAO1; conditions: source human wound; Mueller-Hinton medium, 37 °C, 24 h, 5 × 10^5 CFU/mL; three sets of determinations
From the text: as §1, §2

[14] = test system: P. aeruginosa strain M2; conditions: source burn mouse model; Mueller-Hinton medium, 37 °C, 24 h, 5 × 10^5 CFU/mL; three sets of determinations
From the text: as §1, §2

[15] = test system: P. aeruginosa strain PAK; conditions: Mueller-Hinton medium, 37 °C, 24 h, 5 × 10^5 CFU/mL; three sets of determinations
From the text: as §1, §2

[16] = test system: P. aeruginosa strain CP204; conditions: source cystic fibrosis patient; Mueller-Hinton medium, 37 °C, 24 h, 5 × 10^5 CFU/mL; three sets of determinations
From the text: as §1, §2

[17] = test system: P. aeruginosa strain WR5; conditions: source burn patient; Mueller-Hinton medium, 37 °C, 24 h, 5 × 10^5 CFU/mL; three sets of determinations
From the text: as §1, §2

[18] = test system: P. aeruginosa strain PA14; conditions: Mueller-Hinton medium, 37 °C, 24 h, 5 × 10^5 CFU/mL; three sets of determinations
From the text: as §1, §2

[19] = test system: human erythrocytes; assay: Hemolytic activity (HC50); format: cell-based; conditions: for Hemolytic activity HC50: concentration giving 50% hemolysis after 18 h at 37 °C, 1% human erythrocytes in PBS pH 7.4, hemoglobin release at 570 nm, 100% control water (Figure 7)
Method: Hemoglobin release was determined spectrophotometrically at 570 nm.
From these plots, the HC50 values, the peptide concentration that produces 50% hemolysis of human red blood cells after 18 hours in the standard microtiter dilution method was determined.

[20] = test system: Acinetobacter baumannii (11 different isolates); format: cell-based; conditions: geometric mean of the MIC values from 11 different isolates of A. baumannii; Table 3A
From the text: as §3, §4
Antibacterial activities against six strains of P. aeruginosa and eleven strains of A. baumannii are compared in Table 3. Geometric mean of MIC values was calculated to provide an overall view of antimicrobial activity of different analogs. It is clear that our peptides were effective in killing the microorganisms tested. Compared to a dramatic reduction in hemolytic activity, antibacterial activity of D-piscidin 1 and D-dermaseptin S4 analogs against eleven strains of A. baumannii maintained the same level (within 2-fold) upon the substitution of “specificity determinant(s)” (Table 3).

Compound	MIC GM [1] [µM]	MIC 759 [2] [µM]	MIC 884 [3] [µM]	MIC 649 [4] [µM]	MIC ATCC19606 [5] [µM]	MIC 821 [6] [µM]	MIC 1012 [7] [µM]	MIC 985 [8] [µM]	MIC 964 [9] [µM]	MIC 689 [10] [µM]	MIC ATCC17978 [11] [µM]	MIC 899 [12] [µM]	MIC PAO1 [13] [µM]	MIC M2 [14] [µM]	MIC PAK [15] [µM]	MIC CP204 [16] [µM]	MIC WR5 [17] [µM]	MIC PA14 [18] [µM]	Hemolytic activity HC50 [19] [µM]	MIC GM [20] [µM]	other results
CSCC[C@@H](NC(=O)[C@@H](Cc1c[nH]c2ccccc12)NC(=O)[C@@H](CC(C)C)NC(=O)[C@@H](C)N)C(=O)N[C@@H](C(=O)N[C@H](CC(C)C)C(=O)N[C@H](CCCCN)C(=O)N[C@H](CCCCN)C(=O)N[C@H](CCCCN)C(=O)N[C@@H](C(=O)N[C@H](CC(C)C)C(=O)N[C@H](CCCCN)C(=O)N[C@H](C)C(=O)N[C@H](CCCCN)C(=O)N[C@H](C)C(=O)N[C@H](CCCCN)C(=O)N[C@H](C)C(=O)N[C@H](CC(C)C)C(=O)N[C@H](CC(N)=O)C(=O)N[C@H](C)C(=O)N[C@@H](C(=O)N[C@H](CC(C)C)C(=O)N[C@@H](C(=O)NCC(=O)N[C@H](C)C(=O)N[C@H](CC(N)=O)C(=O)N[C@H](C)C(N)=O)C(C)C)C(C)C)C(C)C)[C@H](C)O [D-Dermaseptin S4 L7K,A14K] (H-[dA][dL][dW][dM][dT][dL][dK][dK][dK][dV][dL][dK][dA][dK][dA][dK][dA][dL][dN][dA][dV][dL][dV]G[dA][dN][dA]-NH2)	4.9 (≈ 14 µg/mL)	1.4 (≈ 3.99 µg/mL)	1.4 (≈ 3.99 µg/mL)	0.7 (≈ 2 µg/mL)	0.7 (≈ 2 µg/mL)	0.7 (≈ 2 µg/mL)	2.7 (≈ 7.7 µg/mL)	0.7 (≈ 2 µg/mL)	2.7 (≈ 7.7 µg/mL)	0.7 (≈ 2 µg/mL)	0.7 (≈ 2 µg/mL)	1.4 (≈ 3.99 µg/mL)	5.5 (≈ 15.7 µg/mL)	21.9 (≈ 62.4 µg/mL)	1.4 (≈ 3.99 µg/mL)	1.4 (≈ 3.99 µg/mL)	11.0 (≈ 31.4 µg/mL)	5.5 (≈ 15.7 µg/mL)	241	1.1 (≈ 3.14 µg/mL)	–
CC[C@@H](C)[C@@H](NC(=O)[C@@H](Cc1c[nH]cn1)NC(=O)[C@@H](Cc1c[nH]cn1)NC(=O)[C@@H](Cc1ccccc1)NC(=O)[C@H](N)Cc1ccccc1)C(=O)N[C@H](Cc1ccccc1)C(=O)N[C@H](CCCNC(=N)N)C(=O)NCC(=O)N[C@H](CCCCN)C(=O)N[C@@H](C(=O)N[C@H](Cc1c[nH]cn1)C(=O)N[C@@H](C(=O)NCC(=O)N[C@H](CCCCN)C(=O)N[C@@H](C(=O)N[C@@H](C(=O)N[C@H](Cc1c[nH]cn1)C(=O)N[C@H](CCCNC(=N)N)C(=O)N[C@H](CC(C)C)C(=O)N[C@@H](C(=O)N[C@@H](C(=O)NCC(N)=O)[C@H](C)O)C(C)C)[C@H](C)CC)[C@H](C)O)C(C)C)C(C)C [D-Piscidin 1 I9K] (H-[dF][dF][dH][dH][dI][dF][dR]G[dK][dV][dH][dV]G[dK][dT][dI][dH][dR][dL][dV][dT]G-NH2)	30.5 (≈ 78.9 µg/mL)	3.0 (≈ 7.76 µg/mL)	3.0 (≈ 7.76 µg/mL)	3.0 (≈ 7.76 µg/mL)	1.5 (≈ 3.88 µg/mL)	3.0 (≈ 7.76 µg/mL)	6.0 (≈ 15.5 µg/mL)	3.0 (≈ 7.76 µg/mL)	3.0 (≈ 7.76 µg/mL)	3.0 (≈ 7.76 µg/mL)	3.0 (≈ 7.76 µg/mL)	3.0 (≈ 7.76 µg/mL)	48.3 (≈ 125 µg/mL)	48.3 (≈ 125 µg/mL)	12.1 (≈ 31.3 µg/mL)	48.3 (≈ 125 µg/mL)	24.2 (≈ 62.6 µg/mL)	24.2 (≈ 62.6 µg/mL)	98	3.0 (≈ 7.76 µg/mL)	Hemolytic activity Fold improvement in HC50 [19]: 54 fold; Hemolytic activity HC50, 18 hours (Figure 8 comparison) ([19]; 18 hours at 37 °C, human red blood cells, Figure 8, 100% control 0.1% Triton-X 100): 115 µM
CC[C@@H](C)[C@@H](NC(=O)CNC(=O)[C@@H](CCCNC(=N)N)NC(=O)[C@@H](Cc1ccccc1)NC(=O)[C@H](NC(=O)[C@@H](Cc1c[nH]cn1)NC(=O)[C@@H](Cc1c[nH]cn1)NC(=O)[C@@H](Cc1ccccc1)NC(=O)[C@H](N)Cc1ccccc1)[C@H](C)CC)C(=O)N[C@@H](C(=O)N[C@H](Cc1c[nH]cn1)C(=O)N[C@@H](C(=O)N[C@H](CCCCN)C(=O)N[C@H](CCCCN)C(=O)N[C@@H](C(=O)N[C@@H](C(=O)N[C@H](Cc1c[nH]cn1)C(=O)N[C@H](CCCNC(=N)N)C(=O)N[C@H](CC(C)C)C(=O)N[C@@H](C(=O)N[C@@H](C(=O)NCC(N)=O)[C@H](C)O)C(C)C)[C@H](C)CC)[C@H](C)O)C(C)C)C(C)C [D-Piscidin 1 G13K] (H-[dF][dF][dH][dH][dI][dF][dR]G[dI][dV][dH][dV][dK][dK][dT][dI][dH][dR][dL][dV][dT]G-NH2)	21.1 (≈ 55.8 µg/mL)	5.9 (≈ 15.6 µg/mL)	5.9 (≈ 15.6 µg/mL)	3.0 (≈ 7.93 µg/mL)	5.9 (≈ 15.6 µg/mL)	5.9 (≈ 15.6 µg/mL)	5.9 (≈ 15.6 µg/mL)	3.0 (≈ 7.93 µg/mL)	5.9 (≈ 15.6 µg/mL)	5.9 (≈ 15.6 µg/mL)	5.9 (≈ 15.6 µg/mL)	5.9 (≈ 15.6 µg/mL)	23.7 (≈ 62.6 µg/mL)	11.8 (≈ 31.2 µg/mL)	11.8 (≈ 31.2 µg/mL)	47.3 (≈ 125 µg/mL)	23.7 (≈ 62.6 µg/mL)	23.7 (≈ 62.6 µg/mL)	7.0	5.2 (≈ 13.7 µg/mL)	–
